Source: US20110251143A1, “STABLE ELSAMITRUCIN SALT FORMULATIONS” (Spectrum Pharmaceuticals, Inc., priority 2007, published 2011)

Experiments:
[1] = patients with refractory/relapsed non-Hodgkin's lymphoma; cited from earlier work
MCF7 = conditions: ER+ MCF7 cell line; cited from earlier work
[2] = stability study of Elsamitrucin F2 RTU, impurities profile by HPLC;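 further: formulation kept in nitrogen-flushed sealed amber vials, sampled at time points, diluted to roughly 0.1 mg/mL and analysed by gradient HPLC on a C18 column, water/acetonitrile with trifluoroacetic acid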
Experimental: Design of the Stability Study: 250 mL of Elsamitrucin Tosylate stock solution (10 mg/mL free base, 4.77% Mannitol, pH 4.0) was prepared. 80×5 mL amber serum vials were filled with 2.5 mL of the Elsamitrucin Tosylate stock solution, flushed with nitrogen and sealed with stoppers. These sealed vials, in both upright and inverted positions, were stored in the following temperature cabinets at 4, 25, 40 and 60° C., respectively. […] Samples were removed for pH measurement and high performance liquid chromatography (HPLC) analysis at the various time points. At 60° C., measurements were made at 0, 2, 7, 10, 14 days. At 40° C., measurements were made at 0, 7, 14, 28, 38, 64, 77, 84 days. At 25° C., measurements were made at 0, 7, 14, 28, 64, 84 days. At 4° C., measures were made at 0, 7, 14, 28, 64, 84 days.
For the present stability study HPLC weight/weight assay of elsamitrucin was done in addition to the determination of related impurities. The reagents for the HPLC assay are as follows—HPLC grade acetonitrile and trifluoroacetic acid (Lot #44093418) were obtained from EMD Science. Water was purified with Millipore Milli-Q system. The apparatus was the chromatographic system which consisted of a Waters Alliance 2695 separation module equipped with a column heater, an autosampler and a Waters 2996 photodiode array detector. Data acquisition was controlled by Waters Empower Pro 2 software. As the column a Cadenza Cd-C18, 3 μm, 4.6×150 mm (Silverstone Sciences) was used. Detection was made at 267 nm. Mobile phase A contained water with 0.1% trifluoroacetic acid. 2 mL of trifluoroacetic acid was pipetted to 2000 mL of water. Mobile phase B contained acetonitrile with 0.08% trifluoroacetic acid. 1 mL of trifluoroacetic acid was pipetted to 1250 mL of acetonitrile. 1 L of water was mixed thoroughly with 1 L of acetonitrile.
HPLC analysis was run with a gradient at flow rate equal to 1.0 mL/min. The oven temperature was set at 40° C. The autosampler temperature was at 25° C. The injection volume was 10 μL. Sample Diluent—Acetonitrile/water (50/50, v/v): 1 L of water was mixed thoroughly with 1 L of acetonitrile. Sample Blank—Acetonitrile/water (50/50, v/v): Sample Diluent was used as Sample Blank. Standard Solution—˜0.1 mg/mL of Elsamitrucin: 26.32 mg of Elsamitrucin Tosylate was accurately weighed and dissolved in a 200 mL of Sample Diluent in a 200 mL volumetric flask. Sample Solution Preparation (one vial per time point): 2 mL of Elsamitrucin RTU solution was pipetted to a 20 mL volumetric flask and diluted with 18 mL of Sample Diluent. 2 mL of the diluted solution was further diluted with 18 mL of Sample Diluent in a 20 mL volumetric flask to give the final analytical sample (with concentration at about 0.1 mg/mL). The retention time for Elsamitrucin was about 11.7 minutes.

MDA-MB-231 = conditions: ER− MDA-MB-231 cell line; cited from earlier work
[3] = test system: HCT 116 human colon carcinoma; assay: MTT cell growth inhibition, HCT 116; type: cell-based; conditions: Homo sapiens; HCT 116, MTT, 5-10 days
Experimental: (§1) The following experiment confirms that the elsamitrucin salts made in accordance with the teachings of the present disclosure retain their in vitro anti-neoplastic activity when compared to elsamitrucin base. Elsamitrucin and elsamitrucin tosylate were tested in vitro using: B16F10 (murine […]), HCT 116 (human colon), HT29 (human colon) and SK-MES-1 (human non-small cell lung carcinoma). Cell growth inhibition was evaluated in 96-well micro-culture plates with a semi-automated MTT (3-(4,5-dimethylthiazol-2-yl)-2,5-diphenyltetrazolium bromide) assay. […]
(§2) Cell culture plates seeded with test cells and various concentrations of elsamitrucin solutions were placed in a humidified incubator at 37° C., with CO2 and 95% air for 5-10 days. […] Absorbance was monitored at a wavelength of 595 nm, and at a reference wavelength of 650 nm, using a TECAN® GENios mocroplate reader. In all experiments, absorbance data was acquired for each agent at two overlapping concentration ranges. […]
(§3) The results of each test were stored and imported into PRISM® 3.03 for graphical analysis and determination of IC50 values. All results were graphed as a percentage of controlled absorbance versus the drug concentration. […]

[4] = test system: SK-MES-1 human non-small cell lung carcinoma; assay: MTT cell growth inhibition, SK-MES-1; type: cell-based; conditions: Homo sapiens; SK-MES-1, MTT, 5-10 days
Experimental: as §1, §2, §3

MCF7DX = MCF7DX subline; cited from earlier work
ER+ tumors = conditions: clinical specimens; cited from earlier work
ER− tumors = conditions: clinical specimens; cited from earlier work
[5] = test system: HT29 human colon carcinoma; assay: MTT cell growth inhibition, HT29; type: cell-based; conditions: Homo sapiens, HT-29, 5-10 days
Experimental: as §1, §2, §3

[6] = test system: B16F10 murine melanoma cells; assay: MTT cell growth inhibition, B16F10; type: cell-based; conditions: Mus musculus, B16-F10, 5-10 days
Experimental: as §1, §2, §3

CO[C@H]1[C@@H](O)[C@@H](C)OC(O[C@H]2[C@H](Oc3cccc4c(O)c5c(=O)oc6ccc(C)c7c(=O)oc(c34)c5c67)O[C@H](C)[C@H](O)[C@]2(C)O)[C@@H]1N (stereo partly drawn) [Elsamitrucin, benzo(h)(1)benzopyrano(5,4,3-cde)(1)ebnzopyran-5,12-dione,10((2-O-(2-amino-2,6-dideoxy-3-O-methyl-alpha-D-galactopyranosyl)-6-deoxy-3-C-methyl-beta-D-galactopyranosyl)oxy)-6-hydroxy-1-methyl]
elsamtrucin-associated toxicity [1]: relatively mild
IC50 antiproliferative effect (MCF7): 0.25 micrograms/ml
Area Percent of HPLC peak ([2]; 10 mg/mL ELSA RTU Formulation 2, inverted, 5° C., Day 7): 97.89 Area Percent
Area Percent of HPLC peak ([2]; 10 mg/mL ELSA RTU Formulation 2, inverted, 5° C., Day 14): 97.70 Area Percent
Area Percent of HPLC peak ([2]; 10 mg/mL ELSA RTU Formulation 2, inverted, 5° C., Day 28): 98.41 Area Percent
Area Percent of HPLC peak ([2]; 10 mg/mL ELSA RTU Formulation 2, inverted, 5° C., Day 64): 97.54 Area Percent
Area Percent of HPLC peak ([2]; 10 mg/mL ELSA RTU Formulation 2, inverted, 5° C., Day 84): 98.15 Area Percent
Area Percent of HPLC peak ([2]; 10 mg/mL ELSA RTU Formulation 2, inverted, 5° C., Initial): 97.63 Area Percent
Area Percent of HPLC peak ([2]; 10 mg/mL ELSA RTU Formulation 2, inverted, 25° C., Day 7): 97.71 Area Percent
Area Percent of HPLC peak ([2]; 10 mg/mL ELSA RTU Formulation 2, inverted, 25° C., Day 14): 97.73 Area Percent
Area Percent of HPLC peak ([2]; 10 mg/mL ELSA RTU Formulation 2, inverted, 25° C., Day 28): 98.37 Area Percent
Area Percent of HPLC peak ([2]; 10 mg/mL ELSA RTU Formulation 2, inverted, 25° C., Day 64): 97.42 Area Percent
Area Percent of HPLC peak ([2]; 10 mg/mL ELSA RTU Formulation 2, inverted, 25° C., Day 84): 97.28 Area Percent
Area Percent of HPLC peak ([2]; 10 mg/mL ELSA RTU Formulation 2, inverted, 25° C., Initial): 97.63 Area Percent
Area Percent of HPLC peak ([2]; 10 mg/mL ELSA RTU Formulation 2, inverted, 40° C., Day 7): 97.75 Area Percent
Area Percent of HPLC peak ([2]; 10 mg/mL ELSA RTU Formulation 2, inverted, 40° C., Day 14): 97.64 Area Percent
Area Percent of HPLC peak ([2]; 10 mg/mL ELSA RTU Formulation 2, inverted, 40° C., Day 28): 97.70 Area Percent
Area Percent of HPLC peak ([2]; 10 mg/mL ELSA RTU Formulation 2, inverted, 40° C., Day 38): 98.04 Area Percent
Area Percent of HPLC peak ([2]; 10 mg/mL ELSA RTU Formulation 2, inverted, 40° C., Day 64): 97.04 Area Percent
Area Percent of HPLC peak ([2]; 10 mg/mL ELSA RTU Formulation 2, inverted, 40° C., Day 77): 96.84 Area Percent
Area Percent of HPLC peak ([2]; 10 mg/mL ELSA RTU Formulation 2, inverted, 40° C., Day 84): 96.64 Area Percent
Area Percent of HPLC peak ([2]; 10 mg/mL ELSA RTU Formulation 2, inverted, 40° C., Initial): 97.63 Area Percent
Area Percent of HPLC peak ([2]; 10 mg/mL ELSA RTU Formulation 2, inverted, 60° C., Day 2): 97.73 Area Percent
Area Percent of HPLC peak ([2]; 10 mg/mL ELSA RTU Formulation 2, inverted, 60° C., Day 7): 96.86 Area Percent
Area Percent of HPLC peak ([2]; 10 mg/mL ELSA RTU Formulation 2, inverted, 60° C., Day 10): 96.82 Area Percent
Area Percent of HPLC peak ([2]; 10 mg/mL ELSA RTU Formulation 2, inverted, 60° C., Day 14): 96.03 Area Percent
Area Percent of HPLC peak ([2]; 10 mg/mL ELSA RTU Formulation 2, inverted, 60° C., Initial): 97.63 Area Percent
Area Percent of HPLC peak ([2]; 10 mg/mL ELSA RTU Formulation 2, upright, 5° C., Day 7): 97.86 Area Percent
Area Percent of HPLC peak ([2]; 10 mg/mL ELSA RTU Formulation 2, upright, 5° C., Day 14): 97.63 Area Percent
Area Percent of HPLC peak ([2]; 10 mg/mL ELSA RTU Formulation 2, upright, 5° C., Day 28): 97.63 Area Percent
Area Percent of HPLC peak ([2]; 10 mg/mL ELSA RTU Formulation 2, upright, 5° C., Day 64): 97.39 Area Percent
Area Percent of HPLC peak ([2]; 10 mg/mL ELSA RTU Formulation 2, upright, 5° C., Day 84): 97.33 Area Percent
Area Percent of HPLC peak ([2]; 10 mg/mL ELSA RTU Formulation 2, upright, 5° C., Initial): 97.63 Area Percent
Area Percent of HPLC peak ([2]; 10 mg/mL ELSA RTU Formulation 2, upright, 40° C., Day 7): 97.77 Area Percent
Area Percent of HPLC peak ([2]; 10 mg/mL ELSA RTU Formulation 2, upright, 40° C., Day 14): 97.71 Area Percent
Area Percent of HPLC peak ([2]; 10 mg/mL ELSA RTU Formulation 2, upright, 40° C., Day 28): 97.62 Area Percent
Area Percent of HPLC peak ([2]; 10 mg/mL ELSA RTU Formulation 2, upright, 40° C., Day 38): 97.76 Area Percent
Area Percent of HPLC peak ([2]; 10 mg/mL ELSA RTU Formulation 2, upright, 40° C., Day 64): 96.86 Area Percent
Area Percent of HPLC peak ([2]; 10 mg/mL ELSA RTU Formulation 2, upright, 40° C., Day 77): 96.80 Area Percent
Area Percent of HPLC peak ([2]; 10 mg/mL ELSA RTU Formulation 2, upright, 40° C., Day 84): 97.31 Area Percent
Area Percent of HPLC peak ([2]; 10 mg/mL ELSA RTU Formulation 2, upright, 40° C., Initial): 97.63 Area Percent
Area Percent of HPLC peak ([2]; 10 mg/mL ELSA RTU Formulation 12, upright, 25° C., Day 7): 97.86 Area Percent
Area Percent of HPLC peak ([2]; 10 mg/mL ELSA RTU Formulation 12, upright, 25° C., Day 14): 97.67 Area Percent
Area Percent of HPLC peak ([2]; 10 mg/mL ELSA RTU Formulation 12, upright, 25° C., Day 28): 98.32 Area Percent
Area Percent of HPLC peak ([2]; 10 mg/mL ELSA RTU Formulation 12, upright, 25° C., Day 64): 97.68 Area Percent
Area Percent of HPLC peak ([2]; 10 mg/mL ELSA RTU Formulation 12, upright, 25° C., Day 84): 98.08 Area Percent
Area Percent of HPLC peak ([2]; 10 mg/mL ELSA RTU Formulation 12, upright, 25° C., Initial): 97.63 Area Percent
Area Percent of HPLC peak ([2]; 10 mg/mL ELSA RTU Formulation 12, upright, 60° C., Day 2): 97.83 Area Percent
Area Percent of HPLC peak ([2]; 10 mg/mL ELSA RTU Formulation 12, upright, 60° C., Day 7): 96.93 Area Percent
Area Percent of HPLC peak ([2]; 10 mg/mL ELSA RTU Formulation 12, upright, 60° C., Day 10): 95.99 Area Percent
Area Percent of HPLC peak ([2]; 10 mg/mL ELSA RTU Formulation 12, upright, 60° C., Day 14): 95.79 Area Percent
Area Percent of HPLC peak ([2]; 10 mg/mL ELSA RTU Formulation 12, upright, 60° C., Initial): 97.63 Area Percent
IC50 antiproliferative effect (MDA-MB-231): 0.21 micrograms/ml
IC50 [3]: 74 nM
IC50 [4]: 42 nM
cross-resistance to DX (MCF7DX): cross-resistant
minimal inhibiting concentrations (ER+ tumors): 0.1 micrograms/ml
minimal inhibiting concentrations (ER− tumors): 3.5 micrograms/ml
IC50 [5]: 95 nM
IC50 [6]: 24 nM
